In article PMC6270453, “One Lignanoid Compound and Four Triterpenoid Compounds with Anti-Inflammatory Activity from the Leaves of Elaeagnus oldhamii Maxim” (Molecules, 2013):
Values after ≈ are worked out from the molar mass of the structure shown. “Also recorded” adds a separate entry of the source.

What was measured:
RAW264.7 cells = experiment: Cell viability (MTT) in the presence of LPS; type: cell-based, murine; details: for Cell Viability (% of Control): RAW264.7, 100 ng/mL LPS, 24 h, MTT, mean ± S.D.
Method: (§1) A murine macrophage cell line RAW264.7 (BCRC No. 60001) was purchased from the Bioresources Collection and Research Center (BCRC, Hsinchu, Taiwan) of the Food Industry Research and Development Institute (Hsinchu, Taiwan). Cells were cultured in plastic dishes containing Dulbecco’s Modified Eagle Medium (DMEM, Sigma) supplemented with 10% fetal bovine serum (FBS, Sigma) in a CO2 incubator (5% CO2 in air) at 37 °C and subcultured every 3 days at a dilution of 1:5 using 0.05% trypsin-0.02% EDTA in Ca^2+-, Mg^2+-free phosphate-buffered saline (DPBS).
Cells (2 × 10^5) were cultured in 96-well plate containing DMEM supplemented with 10% FBS for 1 day to become nearly confluent. Then cells were cultured with compounds 1–5 in the presence of 100 ng/mL LPS (lipopolysaccharide) for 24 h. After that, the cells were washed twice with DPBS and incubated with 100 μL of 0.5 mg/mL MTT for 2 h at 37 °C testing for cell viability. The medium was then discarded and 100 μL dimethyl sulfoxide (DMSO) was added. After 30-min incubation, absorbance at 570 nm was read using a microplate reader (Molecular Devices, Sunnyvale, CA, USA).

[1] = tested on: LPS-induced NO production in macrophages (RAW264.7 cells); experiment: Measurement of nitric oxide/nitrite (Griess reaction) in LPS-stimulated macrophages; type: cell-based, murine; details: for NO Inhibition (% of Control) / No Level: LPS 100 ng/mL, 24 h, mean ± S.D.; for No Level: nitrite in medium, LPS alone 30.3 ± 2.2, in µM
Method: as §1
NO production was indirectly assessed by measuring the nitrite levels in the cultured media and serum determined by a colorimetric method based on the Griess reaction. The cells were incubated with different concentration of samples in the presence of LPS (100 ng/mL) at 37 °C for 24 h. Then, cells were dispensed into 96-well plates, and 100 μL of each supernatant was mixed with the same volume of Griess reagent (1% sulfanilamide, 0.1% naphthylethylenediamine dihydrochloride and 5% phosphoric acid) and incubated at room temperature for 10 min, the absorbance was measured at 540 nm with a Micro-Reader (Molecular Devices). By using sodium nitrite to generate a standard curve, the concentration of nitrite was measured form absorbance at 540 nm.
IC50 values were estimated using a non-linear regression algorithm (Sigma Plot 12.0; SPSS Inc. Chicago, IL, USA). Statistical evaluation was carried out by one-way ANOVA followed by Scheffe’s multiple range tests.

IC50 ([1]; Mus musculus, RAW264.7, 24 h, LPS-stimulated RAW264.7 cells, non-linear regression, read-out: IC50 for inhibition of nitrite production): ~10.3 µg/mL (≈ 31.4 µM)
SMILES: COc1cc([C@H]2Oc3cc(/C=C\CO)ccc3O[C@@H]2C)ccc1O [Compound 1, isoamericanol B]
Cell Viability (% of Control) (RAW264.7 cells; dose 2.5 μg/mL): 100.6 ± 5.9 % of Control
Cell Viability (% of Control) (RAW264.7 cells; dose 5 μg/mL): 97.6 ± 4.3 % of Control
Cell Viability (% of Control) (RAW264.7 cells; dose 10 μg/mL): 90.7 ± 3.3 % of Control
Cell Viability (% of Control) (RAW264.7 cells; dose 20 μg/mL): 88.8 ± 2.6 % of Control
Change of cell viability (in words) (RAW264.7 cells; tested concentrations 2.5 to 20 μg/mL): did not significantly change cell viability; also recorded: did not change significantly cell viability
NO Inhibition (% of Control) ([1]; dose 2.5 μg/mL): 42.0 ± 1.6 % of Control
No Level ([1]; dose 2.5 μg/mL): 17.6 ± 0.5
NO Inhibition (% of Control) ([1]; dose 5 μg/mL): 42.3 ± 2.6 % of Control
No Level ([1]; dose 5 μg/mL): 17.5 ± 08
NO Inhibition (% of Control) ([1]; dose 10 μg/mL): 49.7 ± 1.4 % of Control
No Level ([1]; dose 10 μg/mL): 15.2 ± 0.4
NO Inhibition (% of Control) ([1]; dose 20 μg/mL): 60.4 ± 1.3 % of Control
No Level ([1]; dose 20 μg/mL): 12.0 ± 0.4
